Measured values: PubChem BioAssay AID1996
Values after ≈ are worked out from the molar mass of the structure shown.

details: buffer; pH 7.4; 200.0 µM

solubility kinetic [µg/mL]	SMILES
> 47.1	CC(C(=O)O/N=C(\N)c1ccccn1)c1ccc([N+](=O)[O-])cc1 (stereo not drawn)
8.7 (≈ 25.6 µM)	CC1CCCCC1NC(=O)CO/N=C/c1ccc(OC(F)F)cc1 (stereo not drawn)
36.5 (≈ 144 µM)	c1ccc(OCc2nc(-c3ccncc3)no2)cc1
> 25.7	CCOC(=O)C1CCCNC1=O (stereo not drawn)
> 29	CC(C)Nc1nc2cccnc2s1
34.8 (≈ 131 µM)	COc1cc(NC(=S)N2CCCC2)cc(OC)c1
10.4 (≈ 35.4 µM)	CS/C(=C\C(=O)c1ccco1)Nc1ccccc1Cl
> 50.8	COc1ccc(-c2ncncc2-c2ccc(OC)c(OC)c2)c(O)c1
> 37.5	Cc1ccccc1Nc1nc(N)nc(CCl)n1
6.1 (≈ 23.9 µM)	Nc1ccccc1NC(=O)NC(=O)c1ccccc1
> 48.7	CN1CCN(c2ccncc2S(=O)(=O)N2CCCCC2)CC1
> 34.4	O=C1CCCC(O)=C1C=NCc1ccccc1
> 53.8	COc1ccccc1OCCn1c(SCC(=O)O)nc2ccccc21
18.6 (≈ 142 µM)	NCC(=O)CCC(=O)O
> 30.6	Nc1cccnc1Oc1ccccc1F
40.7 (≈ 124 µM)	Cn1c(=O)n(C)c2cc(NC(=O)COc3ccc(F)cc3)ccc21
> 67.4	COc1ccc(NC(C)C(=O)Nc2cccc(S(=O)(=O)N3CCOCC3)c2)cc1OC (stereo not drawn)
> 51.1	COc1ccc(S(=O)(=O)N2CCN(C(=O)CC(C)C)CC2)cc1
> 36.3	Cl.NC(N)=NC(N)=NCCc1ccccc1
26.3 (≈ 99.9 µM)	Cc1cc(C(=O)Nc2ccncc2)c2ccccc2n1
> 38	O=c1ccc2ccccc2n1Cc1cccc(F)c1
> 48.5	Cn1c(COc2ccc([N+](=O)[O-])cc2)nnc1SCC(N)=O
> 74.7	COc1ccc(C(CNS(=O)(=O)c2ccc(NC(C)=O)c(OC)c2)N2CCCCC2)cc1.Cl (stereo not drawn)

solubility kinetic [µg/mL]	SMILES
> 41.8	CC1(C)CC(NC(=O)c2ccccc2F)CC(C)(C)N1
5.2 (≈ 14.6 µM)	CC1CCC2(CC1)NC(=O)N(CC(=O)N1c3ccccc3CC1C)C2=O (stereo not drawn)
24 (≈ 95.9 µM)	Cc1ccc(N=C2C(=O)Nc3ccccc32)cc1C
11.8 (≈ 37.3 µM)	O=[N+]([O-])c1ccccc1-c1ccc(C(=S)N2CCCCC2)o1
45.3 (≈ 137 µM)	COc1ccccc1-n1ccnc1SCC(=O)NC1CCCC1
> 48.3	Cc1c(NC(=O)COC(=O)C2=COCCO2)cccc1[N+](=O)[O-]
21 (≈ 64.7 µM)	Cc1cccc(CC2CC(=O)N(c3ccc([N+](=O)[O-])cc3)C2=O)c1 (stereo not drawn)
45.1 (≈ 114 µM)	CSc1ccccc1NC(=O)CN(C)C(=O)COc1ncnc2ccccc12
5.1 (≈ 16.5 µM)	Cc1cccc(N=C2NC(=O)/C(=C/c3cccnc3)S2)c1C
> 47.1	CCn1ncc(S(=O)(=O)Nc2cc(Cl)ccc2C)c1C
40.1 (≈ 133 µM)	CN(C)CCNC(=O)c1sc2cccc(F)c2c1Cl
> 59.6	O=C(O)CCSc1nnc(SCC(=O)NC2CCS(=O)(=O)C2)s1 (stereo not drawn)
> 44.3	NC(=O)NC(c1ccc(Cl)cc1)c1ccccc1Cl (stereo not drawn)
< 0.2	N#C/C(=C(\O)c1cc(Cl)sc1Cl)c1nc2ccccc2[nH]1
> 41.1	Cc1ccc(NC(=O)Cn2c([N+](=O)[O-])cnc2C)cc1
> 52.1	CCC(=O)NC(c1ccccc1)c1c(OC(C)=O)ccc2ccccc12 (stereo not drawn)
29 (≈ 84.7 µM)	N/C(CSc1ccccn1)=N\OCc1c(Cl)cccc1Cl
< 0.4	Cc1ccc(-c2noc(=O)n2CC(=O)c2ccc(Cl)cc2)cc1
38.5 (≈ 148 µM)	O=c1c2sccc2[nH]c(=S)n1-c1ccccc1
> 47.5	CC(C(=O)NC1CCCCC1)N1C(=O)C2C3C=CC(C3)C2C1=O (stereo not drawn)
> 43.7	CC(=O)c1cc(CCC(=O)NC2CCCCCC2)oc1C
> 51.3	O=[N+]([O-])c1ccc(Cl)c(S(=O)(=O)NCCc2ccccn2)c1

SMILES	solubility kinetic [µg/mL]
Cc1ccc(CN2CCCN(Cc3ccc(C)cc3)S2(=O)=O)cc1	< 0.4
COc1ccc(SCC2CN(C)CCC2c2ccc(F)cc2)cc1.Cl (stereo not drawn)	32.5
CN(C)CC#CCn1c2ccccc2c2ccccc21.Cl	> 44.8
